Test results taken from US11253519B2, “Composition used to improve symptoms of autism spectrum disorder, and method using same for improving symptoms of autism spectrum disorder” (RENASCIENCE CO., LTD., priority 2016, dated 2022).

Tested on: ASD patient
Assay: ABC-J aberrant behavior checklist (58 items, each rated 0 no problems to 3 marked; 5 subscales) in ASD patients before and after oral intake of test drug
Format: in vivo, human
Set-up: key to ABC-J subscale total score: Hyperactivity / ABC-J subscale total score: Inappropriate Speech: subscale total: sum of its item scores (each 0 = none to 3 = marked)
Experimental: ABC-J is an aberrant behavior checklist available in Japan, which was made by translating and standardizing the revised version of the aberrant behavior checklist developed by American psychologists Aman M. G. and Singh N. N. as a rating scale for quantitatively assessing behavioral disorders associated with intellectual disability and developmental disorder. ABC-J is composed of 58 items that represent problematic behaviors, and a subject is assessed for each item on the following four-rating scale: there are no problems (0 points); the degree of problematic behavior is mild (1 point); the degree of problematic behavior is moderate (2 points); and the degree of problematic behavior is marked (3 points). These 58 items are classified into five subscales: I. Irritability (15 items); II. Lethargy (16 items); III. Stereotypical Behavior (7 items); IV. Hyperactivity (16 items); and V. Inappropriate Speech (4 items). Assessment can be made for each subscale (Ministry of Health, Labour and Welfare, Year 2012 Total Welfare Promotion Project for People with Disabilities, Guidelines for Support for and Assessment of Children with Developmental Disabilities, Asperger Society Japan (a specified non-profit organization), March 2013). […]
An ASD patient (body weight: 45 kg) orally took the test drug detailed below every day for 8 weeks, and their symptoms of ASD were assessed by the diagnostic method described below before (before the start of administration) and 8 weeks after the intake of the drug (8 weeks after the start of administration).
The symptoms of ASD of the ASD patient were assessed based on the scores of ABC-J, PARS-TR, and RSB-R (Japanese version) by a medical doctor who is a researcher of ASD. […]

[1] = case 1, 600 mg/day oral + fursultiamine 25 mg/day, 1 month after start, before administration: 0
[2] = case 1, 600 mg/day oral + fursultiamine 25 mg/day, 1 month after start, before administration: 1
[3] = case 1, 600 mg/day oral + fursultiamine 25 mg/day, 1 month after start, before administration: 2
[4] = case 1, 600 mg/day oral + fursultiamine 25 mg/day, 1 month after start, before administration: 3
[5] = case 2, 600 mg/day oral + fursultiamine 25 mg/day, 17 days after start, before administration: 0
[6] = case 2, 600 mg/day oral + fursultiamine 25 mg/day, 17 days after start, before administration: 1
[7] = case 2, 600 mg/day oral + fursultiamine 25 mg/day, 17 days after start, before administration: 2
[8] = case 2, 600 mg/day oral + fursultiamine 25 mg/day, 17 days after start, before administration: 4
[9] = case 4, 800 mg/day oral + fursultiamine 25 mg/day, 8 weeks

Cc1ncc(CO)c(CN)c1O.Cl.Cl [pyridoxamine dihydrochloride]
ABC-J symptoms across the 5 subscales I to V compared with before taking the drug (case 1, 600 mg/day oral + fursultiamine 25 mg/day, 1 month): significant improvement in symptoms
ABC-J item 2 score (Irritability) [1]: 0
ABC-J item 3 score (Lethargy) [1]: 0
ABC-J item 4 score (Irritability) [1]: 1
ABC-J item 5 score (Lethargy) [1]: 0
ABC-J item 9 score (Inappropriate Speech) [1]: 0
ABC-J item 13 score (Hyperactivity) [1]: 0
ABC-J item 16 score (Lethargy) [1]: 0
ABC-J item 32 score (Lethargy) [1]: 1
ABC-J item 33 score (Inappropriate Speech) [1]: 0
ABC-J item 34 score (Irritability) [1]: 0
ABC-J item 42 score (Lethargy) [1]: 0
ABC-J item 47 score (Irritability) [1]: 0
ABC-J item 50 score (Irritability) [1]: 0
ABC-J item 52 score (Irritability) [1]: 0
ABC-J item 53 score (Lethargy) [1]: 0
ABC-J item 54 score (Hyperactivity) [1]: 0
ABC-J item 55 score (Lethargy) [1]: 0
ABC-J item 56 score (Hyperactivity) [1]: 0
ABC-J item 8 score (Irritability) [2]: 0
ABC-J item 12 score (Lethargy) [2]: 1
ABC-J item 17 score (Stereotypical Behavior) [2]: 0
ABC-J item 18 score (Hyperactivity) [2]: 0
ABC-J item 19 score (Irritability) [2]: 0
ABC-J item 20 score (Lethargy) [2]: 1
ABC-J item 21 score (Hyperactivity) [2]: 0
ABC-J item 24 score (Hyperactivity) [2]: 0
ABC-J item 25 score (Irritability) [2]: 0
ABC-J item 26 score (Lethargy) [2]: 0
ABC-J item 28 score (Hyperactivity) [2]: 0
ABC-J item 29 score (Irritability) [2]: 0
ABC-J item 30 score (Lethargy) [2]: 0
ABC-J item 31 score (Hyperactivity) [2]: 0
ABC-J item 36 score (Irritability) [2]: 0
ABC-J item 37 score (Lethargy) [2]: 0
ABC-J item 40 score (Lethargy) [2]: 1
ABC-J item 41 score (Irritability) [2]: 0
ABC-J item 43 score (Lethargy) [2]: 0
ABC-J item 46 score (Inappropriate Speech) [2]: 0
ABC-J item 48 score (Hyperactivity) [2]: 1
ABC-J item 51 score (Hyperactivity) [2]: 0
ABC-J item 57 score (Irritability) [2]: 0
ABC-J item 58 score (Lethargy) [2]: 1
ABC-J item 1 score (Hyperactivity) [3]: 1
ABC-J item 7 score (Hyperactivity) [3]: 0
ABC-J item 10 score (Irritability) [3]: 0
ABC-J item 14 score (Irritability) [3]: 0
ABC-J item 15 score (Hyperactivity) [3]: 1
ABC-J item 22 score (Inappropriate Speech) [3]: 1
ABC-J item 23 score (Lethargy) [3]: 1
ABC-J item 27 score (Stereotypical Behavior) [3]: 1
ABC-J item 35 score (Stereotypical Behavior) [3]: 1
ABC-J item 38 score (Hyperactivity) [3]: 1
ABC-J item 39 score (Hyperactivity) [3]: 0
ABC-J item 44 score (Hyperactivity) [3]: 0
ABC-J item 45 score (Stereotypical Behavior) [3]: 1
ABC-J item 49 score (Stereotypical Behavior) [3]: 1
ABC-J item 6 score (Stereotypical Behavior) [4]: 1
ABC-J item 11 score (Stereotypical Behavior) [4]: 1
ABC-J subscale total score: Inappropriate Speech [4]: 1
ABC-J subscale total score: Lethargy (case 1, 600 mg/day oral + fursultiamine 25 mg/day, 1 month after start, before administration: 10): 6
ABC-J subscale total score: Irritability (case 1, 600 mg/day oral + fursultiamine 25 mg/day, 1 month after start, before administration: 11): 1
ABC-J subscale total score: Stereotypical Behavior (case 1, 600 mg/day oral + fursultiamine 25 mg/day, 1 month after start, before administration: 15): 6
ABC-J subscale total score: Hyperactivity (case 1, 600 mg/day oral + fursultiamine 25 mg/day, 1 month after start, before administration: 19): 4
ABC-J symptoms across all of the 5 subscales I to V (case 2, 600 mg/day oral + fursultiamine 25 mg/day, 17 days): significantly improved symptoms
ABC-J item 2 score (Irritability) [5]: 0
ABC-J item 7 score (Hyperactivity) [5]: 0
ABC-J item 8 score (Irritability) [5]: 0
ABC-J item 9 score (Inappropriate Speech) [5]: 0
ABC-J item 11 score (Stereotypical Behavior) [5]: 0
ABC-J item 13 score (Hyperactivity) [5]: 0
ABC-J item 17 score (Stereotypical Behavior) [5]: 0
ABC-J item 18 score (Hyperactivity) [5]: 0
ABC-J item 19 score (Irritability) [5]: 0
ABC-J item 27 score (Stereotypical Behavior) [5]: 0
ABC-J item 28 score (Hyperactivity) [5]: 0
ABC-J item 29 score (Irritability) [5]: 0
ABC-J item 31 score (Hyperactivity) [5]: 0
ABC-J item 32 score (Lethargy) [5]: 0
ABC-J item 33 score (Inappropriate Speech) [5]: 0
ABC-J item 34 score (Irritability) [5]: 0
ABC-J item 36 score (Irritability) [5]: 0
ABC-J item 38 score (Hyperactivity) [5]: 0
ABC-J item 39 score (Hyperactivity) [5]: 0
ABC-J item 41 score (Irritability) [5]: 0
ABC-J item 44 score (Hyperactivity) [5]: 0
ABC-J item 47 score (Irritability) [5]: 0
ABC-J item 48 score (Hyperactivity) [5]: 0
ABC-J item 49 score (Stereotypical Behavior) [5]: 0
ABC-J item 50 score (Irritability) [5]: 0
ABC-J item 51 score (Hyperactivity) [5]: 0
ABC-J item 52 score (Irritability) [5]: 0
ABC-J item 53 score (Lethargy) [5]: 0
ABC-J item 54 score (Hyperactivity) [5]: 0
ABC-J item 55 score (Lethargy) [5]: 0
ABC-J item 56 score (Hyperactivity) [5]: 0
ABC-J item 57 score (Irritability) [5]: 0
ABC-J item 1 score (Hyperactivity) [6]: 1
ABC-J item 4 score (Irritability) [6]: 0
ABC-J item 10 score (Irritability) [6]: 0
ABC-J item 12 score (Lethargy) [6]: 0
ABC-J item 15 score (Hyperactivity) [6]: 1
ABC-J item 20 score (Lethargy) [6]: 0
ABC-J item 21 score (Hyperactivity) [6]: 0
ABC-J item 23 score (Lethargy) [6]: 0
ABC-J item 24 score (Hyperactivity) [6]: 0
ABC-J item 26 score (Lethargy) [6]: 1
ABC-J item 30 score (Lethargy) [6]: 0
ABC-J item 35 score (Stereotypical Behavior) [6]: 0
ABC-J item 37 score (Lethargy) [6]: 0
ABC-J item 40 score (Lethargy) [6]: 0
ABC-J item 43 score (Lethargy) [6]: 0
ABC-J item 58 score (Lethargy) [6]: 0
ABC-J item 3 score (Lethargy) [7]: 0
ABC-J item 5 score (Lethargy) [7]: 1
ABC-J item 6 score (Stereotypical Behavior) [7]: 1
ABC-J item 14 score (Irritability) [7]: 0
ABC-J item 16 score (Lethargy) [7]: 1
ABC-J item 22 score (Inappropriate Speech) [7]: 1
ABC-J item 25 score (Irritability) [7]: 0
ABC-J item 45 score (Stereotypical Behavior) [7]: 1
ABC-J item 46 score (Inappropriate Speech) [7]: 1
ABC-J item 42 score (Lethargy) (case 2, 600 mg/day oral + fursultiamine 25 mg/day, 17 days after start, before administration: 3): 2
ABC-J subscale total score: Hyperactivity [8]: 2
ABC-J subscale total score: Inappropriate Speech [8]: 2
ABC-J subscale total score: Stereotypical Behavior (case 2, 600 mg/day oral + fursultiamine 25 mg/day, 17 days after start, before administration: 5): 2
ABC-J subscale total score: Irritability (case 2, 600 mg/day oral + fursultiamine 25 mg/day, 17 days after start, before administration: 6): 0
ABC-J subscale total score: Lethargy (case 2, 600 mg/day oral + fursultiamine 25 mg/day, 17 days after start, before administration: 18): 5
total score of all ABC-J items compared with before administration (case 3, 800 mg/day oral + fursultiamine 25 mg/day, 8 weeks, FIG. 7A): decreased
ABC-J total score of each of the 5 subscales compared with before administration (case 3, 800 mg/day oral + fursultiamine 25 mg/day, 8 weeks, FIG. 7B): decreased
total score of all items of ABC-J compared with before administration (case 4 (no speech), 800 mg/day oral + fursultiamine 25 mg/day, 8 weeks, FIG. 9A): decreased
severity of irritability and self-harming behavior [9]: alleviated the severity
stereotypical behaviors (DSM-5 diagnostic criteria B(1)) [9]: significantly improved
ABC-J subtotal score of the four subscales compared with before administration (case 4, 800 mg/day oral + fursultiamine 25 mg/day, 8 weeks, Inappropriate Speech zero because no speech, FIG. 9B): decreased
